Test results reported in patent US9539231B2, “Method for treating triple-negative breast cancer using AMPI-109” (The Regents of the University of Colorado, a body corporate, priority 2014, dated 2017).

What was measured:
[1] = test system: VDR-mediated gene expression; test: VDR-mediated gene expression; format: cell-based
BT-20 cells [2] = test: Block of AMPI-109-mediated growth inhibition by RXR antagonist; format: cell-based, human; conditions: doses which blocked VDR-mediated gene expression
Excerpt: VDR activates gene expression as a heterodimer with the retinoid X receptor (RXR). The inventors thus also tested whether pharmacologic inhibition of the VDR axis with HX531, an RXR antagonist, would block AMPI-109-mediated growth inhibition of BT-20 cells.

[3] = test system: human breast cancer cells; test: IC50 of AMPI-109 for cellular growth (MTS); format: cell-based; conditions: breast cancer cell lines, read-out: approximate IC50
Experimental: (§1) Breast cancer is a very heterogeneous disease consisting of multiple molecular subtypes. In order to examine the antitumorigenic properties of AMPI-109 in human breast cancer cells of various subtypes, a cohort of breast cancer cell lines were treated with AMPI-109 at its IC50 (the dose where 50% of the cells show the desired effects), equimolar 1,25D or ethanol control and cellular growth was quantified. In particular, the cell lines were treated at the approximate IC50 (100 nM) of AMPI-109, 1,25D (100 nM) or ethanol control for 3 days. MTS assays were then performed. The experiment was repeated three times with 6 replicates per experiment.

MDA-231 [4] = test: Apoptosis ELISA assay, 24 hours; format: cell-based, human; conditions: 100 nM
Experimental: (§2) The inventors also examined the ability of AMPI-109 to induce apoptosis in TN breast cancer cells by performing ELISA assays. Various cell lines (MCF10A, MCF-7, BT-20 and MDA-231) were treated with ethanol control (C), paclitaxel (100 nM, (T)), 1,25D (100 nM), (D)), or AMPI-109 (100 nM), (A)) for 24 hours. ELISA assays were then performed. The p values in the figure were determined by T-test. […] Therefore, it can be concluded that AMPI-109 appears to specifically induce apoptosis in TN breast cancer cells.

BT-20 [5] = test: Apoptosis ELISA assay, 24 hours; format: cell-based, human; conditions: 100 nM
Experimental: as §2

MCF-7 [6] = test: PARP cleavage by western blot, 24 hours; format: cell-based, human; conditions: 100 nM
Experimental: (§3) Cleavage of poly (ADP)-ribose polymerase (PARP), a hallmark of apoptosis, was used to further investigate the ability of AMPI-109 to induce apoptosis of TN breast cancer cells. FIG. 2C, wherein PARP cleavage was determined by western blot, summarizes the results of cleaved PARP after treating MCF10A, MCF-7, BT-20 and MDA-231 with ethanol control (C), paclitaxel (100 nM, (T)), 1,25D (100 nM), (D)), or AMPI-109 (100 nM), (A)) for 24 hours. […] Accordingly, the results as described in FIG. 2A, FIG. 2B, and FIG. 2C indicate the capability of AMPI-109 as an agent to induce apoptosis of TN breast cancer cells.

MDA-231 [7] = test: PARP cleavage by western blot, 24 hours; format: cell-based, human; conditions: 100 nM
Experimental: as §3

MCF10A [8] = test: PARP cleavage by western blot, 24 hours; format: cell-based, human; conditions: 100 nM
Experimental: as §3

BT-20 [9] = test: PARP cleavage by western blot, 24 hours; format: cell-based, human; conditions: 100 nM
Experimental: as §3

T47D = test: MTS growth assay, 3 days treatment; format: cell-based, human; conditions: Luminal A, 100 nM
Experimental: as §1
(§4) The percentage in Table 1 represents growth compared to control treatment. The p values represent significance of difference between 1,25D inhibition and AMPI-109 inhibition of growth. It can be concluded from the data that AMPI-109 inhibits the growth of multiple TN breast cancer subtypes and this inhibition appeared to be almost entirely specific for TN breast cancer cell lines.

HCC70 = test: MTS growth assay, 3 days treatment; format: cell-based, human; conditions: HCC70, TN (BL2), 100 nM
Experimental: as §1, §4

SUM149 = test: MTS growth assay, 3 days treatment; format: cell-based, human; conditions: SUM149, TN (BL2), 100 nM
Experimental: as §1, §4

SKBR3 = test: MTS growth assay, 3 days treatment; format: cell-based, human; conditions: SKBR3, HER2, 100 nM
Experimental: as §1, §4

BT-474 = test: MTS growth assay, 3 days treatment; format: cell-based, human; conditions: BT-474, Luminal B, 100 nM
Experimental: as §1, §4

MCF7 [10] = test: MTS growth assay, 3 days treatment; format: cell-based, human; conditions: MCF7, Luminal A, 100 nM
Experimental: as §1, §4

MDA-231 [11] = test: MTS growth assay, 3 days treatment; format: cell-based, human; conditions: MDA-231, TN (MSL), 100 nM
Experimental: as §1, §4

MCF10A [12] = test: MTS growth assay, 3 days treatment; format: cell-based, human; conditions: Nonmalignant, 100 nM
Experimental: as §1, §4

BT-549 = test: MTS growth assay, 3 days treatment; format: cell-based, human; conditions: BT-549, TN (M), 100 nM
Experimental: as §1, §4

MDA-453 = test: MTS growth assay, 3 days treatment; format: cell-based, human; conditions: MDA-453, HER2, 100 nM
Experimental: as §1, §4

MDA-468 = test: MTS growth assay, 3 days treatment; format: cell-based, human; conditions: MDA-468, TN (BL1), 100 nM
Experimental: as §1, §4

BT-20 [13] = test: MTS growth assay, 3 days treatment; format: cell-based, human; conditions: BT-20, TN (Unclass.), 100 nM
Experimental: as §1, §4

[14] = test system: patient-derived triple negative breast cancer tumor xenograft; test: Patient-derived TNBC tumor xenograft growth inhibition; format: in vivo, NOD-SCID mice; conditions: 1 ug/kg i.p. every other day for three weeks, vs vehicle
Excerpt: The inventors further examined the ability of AMPI-109 to inhibit the growth of a patient-derived triple negative breast cancer tumor xenograft. A tumor from a person diagnosed with stage 4 triple negative breast cancer was propagated by serial passage through NOD-SCID mice. The tumor was dissected into equal sizes and implanted into the left and right mammary fat pads of 12 NOD-SCID mice. Once the tumors reached 100 mm^3 in size the mice were randomized into vehicle- and AMPI-109-treated arms. A total of 19 tumors grew out (9 for vehicle, and 10 for AMPI-109 treated). Vehicle control or AMPI-109 (1 ug/kg body weight) was administered by i.p. injection every other day for three weeks. Upon completion of the study, the tumors were excised and volume and mass were determined. […] The results were shown in FIG. 1, where * indicates a p value of 0.018, which was determined by T-test.

BT-20 cells [15] = test: Growth assay in BT-20 cells with VDR shRNA knock down, 72 hours; format: cell-based, human; conditions: p<0.001
Excerpt: The inventors used shRNAs directed against VDR in BT-20 cells and examined the response after treatment with AMPI-109. […] The non-silencing control is designated as pLKO.

MCF7 [16] = test: Cell viability by crystal violet staining, 7 days; format: cell-based, human; conditions: MCF7 luminal A, 100 nM
Experimental: (§5) In order to determine the effects of AMPI-109 on cell viability as one possible explanation of the reduction in tumor size, the inventors plated various breast cancer cell lines in 6-well dishes and treated with either ethanol control (CU), vitamin D (1,25D) or AMPI-109. 1,25D and AMPI-109 were administered at 100 nM. The plates were incubated for 7 days and cell viability was assessed by crystal violet staining.

MCF-10A [17] = test: Cell viability by crystal violet staining, 7 days; format: cell-based, human; conditions: MCF-10A non-malignant, 100 nM
Experimental: as §5

MDA-231 [18] = test: Cell viability by crystal violet staining, 7 days; format: cell-based, human; conditions: 100 nM
Experimental: as §5

BT-20 [19] = test: Cell viability by crystal violet staining, 7 days; format: cell-based, human; conditions: 100 nM
Experimental: as §5

MCF-10A [20] = test: Apoptosis ELISA assay, 24 hours; format: cell-based, human; conditions: 100 nM
Experimental: as §2

MCF-7 [21] = test: Apoptosis ELISA assay, 24 hours; format: cell-based, human; conditions: 100 nM
Experimental: as §2

Row | Compound | induction of apoptosis (ELISA) (MDA-231 [4]) | induction of apoptosis (ELISA) (BT-20 [5]) | % Control (growth compared to control treatment) (T47D) | % Control (growth compared to control treatment) (HCC70) | % Control (growth compared to control treatment) (SUM149) | % Control (growth compared to control treatment) (SKBR3) | % Control (growth compared to control treatment) (BT-474) | % Control (growth compared to control treatment) (MCF7 [10]) | % Control (growth compared to control treatment) (MDA-231 [11]) | % Control (growth compared to control treatment) (MCF10A [12]) | % Control (growth compared to control treatment) (BT-549) | % Control (growth compared to control treatment) (MDA-453) | % Control (growth compared to control treatment) (MDA-468) | % Control (growth compared to control treatment) (BT-20 [13]) | other results
1 | CN1c2ccc([N+](=O)[O-])cc2N=C(c2ccc(C(=O)O)cc2)c2cc3c(cc21)C(C)(C)CCC3(C)C [HX531] | – | – | – | – | – | – | – | – | – | – | – | – | – | – | effect on VDR-mediated gene expression [1]: blocked VDR-mediated gene expression; effect on AMPI-109-mediated growth inhibition (BT-20 cells [2]): did not inhibit the antiproliferative effects of AMPI-109
2 | C=C1/C(=C\C=C2/CCC[C@]3(C)[C@@H]([C@H](C)CCCC(C)(C)O)CC[C@@H]23)C[C@@H](OC(=O)CBr)C[C@@H]1O [AMPI-109, 1α,25-Dihydroxyvitamin D3-3β-bromoacetate] | strong induction of apoptosis | strong induction of apoptosis | 94% | 49% | 39% | 99% | 66% | 93% | 44% | 99% | 69% | 86% | 39% | 29% | IC50 [3]: ~100 nM; PARP cleavage (western blot) (MCF-7 [6]): only in BT-20 and MDA-231 cells; PARP cleavage (western blot) (MDA-231 [7]): promoted PARP cleavage; PARP cleavage (western blot) (MCF10A [8]): only in BT-20 and MDA-231 cells; PARP cleavage (western blot) (BT-20 [9]): promoted PARP cleavage; tumor mass [14]: significant reduction; tumor volume [14]: significant reduction; reduction of the size of the tumors ([14]; p 0.018): approximately 30%; growth inhibition (BT-20 cells [15]; BT-20 cells with VDR knocked down (VDR3, VDR8 shRNAs)): equally effective at inhibiting the growth; growth inhibition (BT-20 cells [15]; BT-20 control cells (pLKO non-silencing)): equally effective at inhibiting the growth; cell viability (crystal violet staining) (MCF7 [16]): no effect on cell viability; cell viability (crystal violet staining) (MCF-10A [17]): no effect on cell viability; cell viability (crystal violet staining) (MDA-231 [18]): significant reduction in cell viability; cell viability (crystal violet staining) (BT-20 [19]): significant reduction in cell viability
3 | C=C1/C(=C\C=C2/CCC[C@]3(C)[C@@H]([C@H](C)CCCC(C)(C)O)CC[C@@H]23)C[C@@H](O)C[C@@H]1O [1,25D, reference compound] | – | – | 98% | 83% | 92% | 100% | 87% | 95% | 96% | 102% | 94% | 94% | 86% | 82% | –
4 | CC(=O)O[C@H]1C(=O)[C@@]2(C)[C@H]([C@H](OC(=O)c3ccccc3)[C@]3(O)C[C@H](OC(=O)[C@H](O)[C@@H](NC(=O)c4ccccc4)c4ccccc4)C(C)=C1C3(C)C)[C@]1(OC(C)=O)CO[C@@H]1C[C@@H]2O [paclitaxel, reference compound] | induced apoptosis in all cells tested | induced apoptosis in all cells tested | – | – | – | – | – | – | – | – | – | – | – | – | induction of apoptosis (ELISA) (MCF-10A [20]): induced apoptosis in all cells tested; induction of apoptosis (ELISA) (MCF-7 [21]): induced apoptosis in all cells tested
